Results taken from patent publication US20030206893A1, “Cell proliferating agents” (priority 2002, published 2003).
Structures can show the parent of a compound that is named as a salt.

How the values were obtained:
[1] = test system: human skin fibroblast cell line (normal human dermal fibroblasts, neonatal); assay: Proliferative response of plant growth factors on human skin fibroblast cell line, 96-well assay (Cell Titer 96 Aqueous One, absorbance 490 nm); assay type: cell-based; conditions: 28 hours incubation, serum-free DMEM
Experimental: The proliferative response of plant growth factors on the human skin fibroblast cell line (Clonetics, Walkersville, Md., normal human dermal fibroblasts, neonatal, Catalog No. CC-2509) was determined in a 96-well assay system using serum-free medium as a control.
Stock solution of gibberellic acid (Sigma Chemical Company, St. Louis, Mo.) (0.001 M) was prepared in water and then diluted with serum-free Dulbecco's Modified Eagle's Medium (DMEM, Sigma Chemical Co., St. Louis, Mo.) to 10^−5, (“GA2”) and 10^−6 (“GA1”) M solutions. Cells were seeded into 96 well plates at a concentration of 3×10^3 cells in 100 microliters of DMEM containing 10 percent fetal bovine serum (FBS, Sigma Chemical Co., St. Louis, Mo.). Plates were incubated for 24 hours at 37° C. in a humidified, 5 percent CO2 atmosphere. After incubation, the medium was aspirated and the wells were rinsed twice with 100 microliters of serum-free DMEM. The final rinse was aspirated and 100 microliters of the 10^−5 and 10^−6 M of each solution was added to 10 wells. In addition, 100 microliters of vehicle (serum-free DMEM) was added to 10 wells as control. All wells were incubated for 28 hours at 37° C. in a humidified, 5 percent CO2 atmosphere. After incubation, 20 microliters of Cell Titer 96 Aqueous One Solution Reagent (Promega, Corp., Madison, Wis.) was added to all wells. The plates were swirled gently and placed back in the incubator for 45 minutes and spectrophotometric absorbance was read at 490 nm.
Statistical analysis was done by using one-way ANOVA.
Kinetin (Spectrum Chemical, CA) 1 mg/ml aqueous solution as supplied by the Company was used as a stock solution. Further dilutions were made with serum-free Dulbecco's Modified Eagle's Medium (DMEM, Sigma Chemical Co., St. Louis, Mo.) to 10^−5, (“K2”) and 10^−6 (“K1”) M solutions. Cells were seeded into 96 well plates at a concentration of 3×10^3 cells in 100 microliters of DMEM containing 10 percent fetal bovine serum (FBS, Sigma Chemical Co., St. Louis, Mo.). Plates were incubated for 24 hours at 37° C. in a humidified, 5 percent CO2 atmosphere. After incubation, the medium was aspirated and the wells were rinsed twice with 100 microliters of serum-free DMEM. The final rinse was aspirated and 100 microliters of the 10^−5 and 10^−6 M of each solution was added to 10 wells. In addition, 100 microliters of vehicle (serum-free DMEM) was added to 10 wells as control. All wells were incubated for 28 hours at 37° C. in a humidified, 5 percent CO2 atmosphere. After incubation, 20 microliters of Cell Titer 96 Aqueous One Solution Reagent (Promega, Corp., Madison, Wis.) was added to all wells. The plates were swirled gently and placed back in the incubator for 45 minutes and spectrophotometric absorbance was read at 490 nm. […]

human fibroblasts = conditions: reported by S. I. Rattan, Biochem Biophys Res. Comm., 201, 665-672, 1994; cited from earlier work
[2] = 10^-4, 10^-5 and 10^-6 M solutions, 2x10^3 cells seeded
[3] = 10^-5 and 10^-6 M solutions, 3x10^3 cells seeded

SMILES | effect on cell proliferation versus serum-free medium control (one-way ANOVA) [1, 2] | effect on cell proliferation versus serum-free medium control (one-way ANOVA) [1, 3] | effect on onset of aging characteristics in human fibroblasts (human fibroblasts)
C/C(=C\CNc1ncnc2[nH]cnc12)CO [zeatin, trans-zeatin HCl] | good cell proliferating agent |  | 
CC/C=C\C[C@H]1C(=O)CC[C@@H]1CC(=O)O [jasmonic acid] | strong cell proliferating agent |  | 
C=C1C[C@]23C[C@@]1(O)CC[C@H]2[C@@]12C=C[C@H](O)[C@@](C)(C(=O)O1)[C@H]2[C@@H]3C(=O)O [gibberellic acid] |  | good cell proliferating agent | 
c1coc(CNc2ncnc3[nH]cnc23)c1 [kinetin] |  | good cell proliferating agent | delay the onset of aging characteristics
